# Data reported in patent US11814652B2, “Pluripotent stem cell differentiation-promoting agent” (Oriental Yeast Co., Ltd., priority 2018, dated 2023).
# How the values were obtained:
# Assay type in all cases: cell-based
# [1] = tested on: Human adipose tissue-derived mesenchymal stem cells; assay: qPCR of PPARγ and adiponectin genes after adipocyte differentiation-induction of mesenchymal stem cells grown with β-NMN (Example 9); settings: GAPDH internal standard, 0.1 mM or 0.25 mM of β-NMN, 0 mM defined as 1, 14th day of adipocyte differentiation-induction
# Source text: The effects of culturing in the presence of β-NMN before adipocyte differentiation-induction of mesenchymal stern cells were examined. In the same manner as in Example 8, Human adipose tissue-derived mesenchymal stem cells (manufactured by Lonza, Cat #PT5006) were used as the mesenchymal stem cells. As a growth culture medium, a culture medium prepared by appropriately adding β-MNM to “MSCGM Bullet Kit” (manufactured by Lonza, Cat #PT3001) was used as in Example 8. As an adipocyte differentiation-inducing culture medium, a culture medium prepared by adjusting a DMEM-High Glucose medium to have a final concentration of fetal bovine serum of 10% by volume, a final concentration of IBMX of 0.5 mM, a final concentration of dexamethasone of 1 μM, a final concentration of indomethacin of 200 μM, and a final concentration of penicillin-streptomycin of 0.1% was used. The culture of the mesenchymal stem cells before differentiation-induction was performed in the same manner as in Example 8. The differentiation induction was performed in the same manner as in Example 8 except that the adipocyte differentiation-inducing culture medium was used instead of the bone differentiation-inducing culture medium. […] The relative expression level of each gene was determined from the results of qPCR of cells that were induced to differentiate into adipocytes. […]
# [2] = tested on: Human adipose tissue-derived mesenchymal stem cells; assay: Oil red O staining after adipocyte differentiation-induction of mesenchymal stem cells grown with β-NMN (Example 9); settings: growth medium supplemented with 0.1 mM or 0.25 mM of β-NMN; 14th day of adipocyte differentiation-induction; compared with 0 mM
# Source text: The effects of culturing in the presence of β-NMN before adipocyte differentiation-induction of mesenchymal stern cells were examined. In the same manner as in Example 8, Human adipose tissue-derived mesenchymal stem cells (manufactured by Lonza, Cat #PT5006) were used as the mesenchymal stem cells. As a growth culture medium, a culture medium prepared by appropriately adding β-MNM to “MSCGM Bullet Kit” (manufactured by Lonza, Cat #PT3001) was used as in Example 8. As an adipocyte differentiation-inducing culture medium, a culture medium prepared by adjusting a DMEM-High Glucose medium to have a final concentration of fetal bovine serum of 10% by volume, a final concentration of IBMX of 0.5 mM, a final concentration of dexamethasone of 1 μM, a final concentration of indomethacin of 200 μM, and a final concentration of penicillin-streptomycin of 0.1% was used. The culture of the mesenchymal stem cells before differentiation-induction was performed in the same manner as in Example 8. The differentiation induction was performed in the same manner as in Example 8 except that the adipocyte differentiation-inducing culture medium was used instead of the bone differentiation-inducing culture medium. On the 14th day from the initiation of the differentiation-induction, the staining test and the cell RNA recovery were performed. […]
# iPS cells 253G1 strain = assay: Flow cytometry of Sox17 after endodermal differentiation-induction following undifferentiated culture with β-NMN (Example 5); settings: β-NMN 0.25 or 1 mM during undifferentiated culture, then endodermal differentiation-induction; 5th or 7th day; versus absence of β-NMN
# Protocol: The effects of culturing in the presence of β-NMN before induction of differentiation on the endodermal differentiation-induction of iPS cells was examined. As the iPS cells, the 253G1 strain was used. iPS cells seeded on a culture dish coated with Matrigel (manufactured by Corning Incorporated) according to the manufacturer's protocol were cultured in a culture medium prepared by adjusting a culture medium for iPS cells to have a final concentration of β-NMN 0, 0.25 or 1 mM, and a final concentration of Rock inhibitor of 10 μM for 1 day. From the 1st day after seeding, the culture medium was replaced every day with a culture medium obtained by removing the Rock inhibitor from the culture medium at the time of seeding. When the confluent reached 70 to 80%, the iPS cells were detached from the culture dish and collected. The collected iPS cells were seeded at 3×10^5 cells/well in a 24-well plate coated with Matrigel (manufactured by Corning Incorporated) according to the manufacturer's protocol. […] After washing the stained cells, a flow cytometer “FACS caliber” (manufactured by Becton, Dickinson and Company) was used to analyze the fluorescence intensity of the anti-Sox17 antibody and the fluorescence intensity of the anti-FoxA2 antibody in each sample. […]
smiles,measurement,setting,value
"NC(=O)c1ccc[n+]([C@@H]2O[C@H](COP(=O)([O-])O)[C@@H](O)[C@H]2O)c1 [β-NMN, β-nicotinamide mononucleotide]",relative expression level of the PPARγ gene,[1],increase
same,relative expression level of the adiponectin gene,[1],increase
same,accumulation of lipid droplets (oil red O staining),[2],more accumulation of lipid droplets
same,ratio of Sox17-positive cells,iPS cells 253G1 strain,higher
